± gives the uncertainty stated by the source.
Test: xn = mol fraction of the nth substance listed

CC(O)C(C)O (stereo unspecified) + O
viscosity [mPa·s]
Details	303.15 K	308.15 K	313.15 K	318.15 K	323.15 K
101 kPa, x1 = 0.01	0.943 ± 0.009	0.842 ± 0.008	0.759 ± 0.007	0.69 ± 0.007	0.632 ± 0.006
101 kPa, x1 = 0.0199	1.108 ± 0.01	0.982 ± 0.009	0.877 ± 0.008	0.792 ± 0.008	0.719 ± 0.007
101 kPa, x1 = 0.03	1.294 ± 0.012	1.138 ± 0.011	1.01 ± 0.01	0.905 ± 0.009	0.816 ± 0.008
101 kPa, x1 = 0.0399	1.506 ± 0.014	1.312 ± 0.012	1.155 ± 0.011	–	0.919 ± 0.009
101 kPa, x1 = 0.0499	1.733 ± 0.016	1.498 ± 0.014	1.308 ± 0.012	1.155 ± 0.011	1.028 ± 0.01
101 kPa, x1 = 0.0601	1.985 ± 0.018	1.7 ± 0.016	1.471 ± 0.014	1.292 ± 0.012	1.145 ± 0.011
101 kPa, x1 = 0.0699	2.242 ± 0.02	1.91 ± 0.017	1.649 ± 0.015	1.436 ± 0.013	1.264 ± 0.012
101 kPa, x1 = 0.08	2.53 ± 0.023	2.135 ± 0.019	1.826 ± 0.017	1.586 ± 0.015	1.39 ± 0.013
101 kPa, x1 = 0.0899	2.79 ± 0.025	2.345 ± 0.021	1.998 ± 0.018	1.724 ± 0.016	1.503 ± 0.014
101 kPa, x1 = 0.1	3.084 ± 0.028	2.571 ± 0.023	2.182 ± 0.02	1.868 ± 0.017	1.622 ± 0.015
101.3 kPa, x1 = 0.1176	–	3.174 ± 0.036	2.627 ± 0.03	2.203 ± 0.025	–
101.3 kPa, x1 = 0.2307	–	6.873 ± 0.07	5.405 ± 0.058	4.363 ± 0.048	–
101.3 kPa, x1 = 0.3181	–	10.06 ± 0.096	7.822 ± 0.078	6.198 ± 0.065	–
101.3 kPa, x1 = 0.4443	–	15.66 ± 0.14	11.92 ± 0.11	9.192 ± 0.09	–
101.3 kPa, x1 = 0.5311	–	20.41 ± 0.18	15.17 ± 0.14	11.64 ± 0.11	–
101.3 kPa, x1 = 0.6427	–	27.5 ± 0.25	20.24 ± 0.19	15.02 ± 0.14	–
101.3 kPa, x1 = 0.8275	–	41.68 ± 0.38	29.62 ± 0.28	21.32 ± 0.2	–
101.3 kPa, x2 = 0.3539	–	12.95 ± 0.086	–	–	–

CC(O)C(C)O (stereo unspecified) + O=C1CCCN1
Details	viscosity [mPa·s]
308.15 K, 101 kPa, x2 = 0.5898	14.65 ± 0.38

COC(=O)OCC(F)(F)F + O=C1OCCO1
313.15 K, 100 kPa
Details	viscosity [mPa·s]
x2 = 0.1011	0.826 ± 0.018
x2 = 0.1994	0.92 ± 0.02
x2 = 0.3006	1.03 ± 0.022
x2 = 0.3997	1.142 ± 0.025
x2 = 0.5004	1.264 ± 0.027
x2 = 0.5989	1.39 ± 0.03
x2 = 0.7023	1.524 ± 0.033
x2 = 0.7988	1.652 ± 0.036
x2 = 0.9	1.786 ± 0.039
